Key:
[1] = molecular target: Serine/threonine-protein kinase 35 (Homo sapiens) (UniProt Q8TDR2); test: STK35 DiscoveRx kinase panel; details: Compound concentration 1.0 uM
[2] = molecular target: T1, Alpha-2A adrenergic receptor (Homo sapiens) (UniProt P08913); details: Compound concentration 10.0 uM
T1 sequence (whole entry): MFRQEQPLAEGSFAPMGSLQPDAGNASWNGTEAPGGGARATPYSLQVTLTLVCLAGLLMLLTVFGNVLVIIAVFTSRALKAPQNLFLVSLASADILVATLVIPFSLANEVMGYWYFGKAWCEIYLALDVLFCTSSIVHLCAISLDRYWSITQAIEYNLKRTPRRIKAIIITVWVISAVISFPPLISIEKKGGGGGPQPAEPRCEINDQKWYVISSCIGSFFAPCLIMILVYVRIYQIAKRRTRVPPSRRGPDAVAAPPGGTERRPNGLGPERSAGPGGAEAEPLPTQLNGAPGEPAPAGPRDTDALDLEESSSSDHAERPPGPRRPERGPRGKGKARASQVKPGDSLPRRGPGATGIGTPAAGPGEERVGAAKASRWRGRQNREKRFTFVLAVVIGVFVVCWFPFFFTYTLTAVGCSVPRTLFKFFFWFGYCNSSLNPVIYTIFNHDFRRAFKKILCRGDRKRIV

[3] = molecular target: Dual specificity protein kinase CLK1 (Homo sapiens) (UniProt P49759); test: CLK1 DiscoveRx kinase panel; details: Compound concentration 1.0 uM
[4] = molecular target: Cyclin-dependent kinase 17 (Homo sapiens) (UniProt Q00537); test: PCTK2 DiscoveRx kinase panel; details: Compound concentration 1.0 uM
Cyclin-dependent kinase 17 (Homo sapiens), sequence (Q00537 whole entry, looked up): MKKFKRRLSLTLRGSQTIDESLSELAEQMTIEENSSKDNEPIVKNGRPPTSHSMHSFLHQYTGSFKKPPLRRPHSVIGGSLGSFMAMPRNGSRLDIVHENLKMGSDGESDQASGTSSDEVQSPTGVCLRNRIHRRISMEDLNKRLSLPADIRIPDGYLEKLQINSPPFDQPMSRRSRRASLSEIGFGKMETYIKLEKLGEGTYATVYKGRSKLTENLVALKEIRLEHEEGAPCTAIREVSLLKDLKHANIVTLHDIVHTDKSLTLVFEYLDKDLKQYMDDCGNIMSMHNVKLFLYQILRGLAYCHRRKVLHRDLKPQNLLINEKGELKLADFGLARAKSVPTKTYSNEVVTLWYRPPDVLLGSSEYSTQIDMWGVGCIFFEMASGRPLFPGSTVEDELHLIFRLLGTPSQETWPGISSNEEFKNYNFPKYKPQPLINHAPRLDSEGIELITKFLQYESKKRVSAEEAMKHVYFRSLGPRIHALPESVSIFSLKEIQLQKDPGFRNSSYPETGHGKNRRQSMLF

[5] = molecular target: Vasopressin V1a receptor (Homo sapiens) (UniProt P37288); test: Vasopressin V1A Eurofins-Panlabs radioligand binding assay; details: Compound concentration 10.0 uM
Vasopressin V1a receptor (Homo sapiens), sequence (P37288 whole entry, looked up): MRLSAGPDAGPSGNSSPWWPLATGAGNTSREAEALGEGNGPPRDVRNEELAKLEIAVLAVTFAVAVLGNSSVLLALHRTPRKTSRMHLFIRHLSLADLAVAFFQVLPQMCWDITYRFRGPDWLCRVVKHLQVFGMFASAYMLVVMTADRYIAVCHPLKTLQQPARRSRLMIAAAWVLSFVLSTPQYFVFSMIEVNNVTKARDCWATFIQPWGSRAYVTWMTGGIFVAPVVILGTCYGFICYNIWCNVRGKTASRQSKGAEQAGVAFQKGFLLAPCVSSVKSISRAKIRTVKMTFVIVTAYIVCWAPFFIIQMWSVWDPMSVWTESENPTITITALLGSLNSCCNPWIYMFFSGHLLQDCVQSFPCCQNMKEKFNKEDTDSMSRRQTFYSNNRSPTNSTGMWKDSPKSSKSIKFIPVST

[6] = molecular target: Melanocortin receptor 4 (Homo sapiens) (UniProt P32245); test: Melanocortin MC4 Eurofins-Panlabs radioligand binding assay; details: Compound concentration 10.0 uM
[7] = molecular target: Serine/threonine-protein kinase PLK2 (Homo sapiens) (UniProt Q9NYY3); test: PLK2 DiscoveRx kinase panel; details: Compound concentration 1.0 uM
[8] = molecular target: Dual specificity tyrosine-phosphorylation-regulated kinase 2 (Homo sapiens) (UniProt Q92630); test: DYRK2 DiscoveRx kinase panel; details: Compound concentration 1.0 uM
[9] = molecular target: Cannabinoid receptor 1 (Homo sapiens) (UniProt P21554); details: Compound concentration 10.0 uM
Cannabinoid receptor 1 (Homo sapiens), sequence (P21554 whole entry): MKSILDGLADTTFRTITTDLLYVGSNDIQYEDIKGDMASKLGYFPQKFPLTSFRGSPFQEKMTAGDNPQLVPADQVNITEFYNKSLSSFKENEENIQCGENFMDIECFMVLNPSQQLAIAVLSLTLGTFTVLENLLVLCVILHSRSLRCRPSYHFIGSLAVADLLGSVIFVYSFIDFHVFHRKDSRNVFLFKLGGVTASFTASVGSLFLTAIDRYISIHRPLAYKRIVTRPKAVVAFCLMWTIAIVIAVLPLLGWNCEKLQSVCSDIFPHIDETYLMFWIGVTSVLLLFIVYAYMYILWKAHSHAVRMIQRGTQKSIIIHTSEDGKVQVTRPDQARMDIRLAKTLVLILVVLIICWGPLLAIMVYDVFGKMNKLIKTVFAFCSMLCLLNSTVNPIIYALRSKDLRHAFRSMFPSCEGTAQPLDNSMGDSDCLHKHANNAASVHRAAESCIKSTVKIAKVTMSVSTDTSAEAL

[10] = molecular target: Serine/threonine-protein kinase D3 (Homo sapiens) (UniProt O94806); test: PRKD3 DiscoveRx kinase panel; details: Compound concentration 1.0 uM
[11] = molecular target: Ribosomal protein S6 kinase alpha-4 (Homo sapiens) (UniProt O75676); test: RPS6KA4(Kin.Dom.1-N-terminal) DiscoveRx kinase panel; details: Compound concentration 1.0 uM
[12] = molecular target: MAP kinase-interacting serine/threonine-protein kinase 1 (Homo sapiens) (UniProt Q9BUB5); test: MKNK1 DiscoveRx kinase panel; details: Compound concentration 1.0 uM
[13] = molecular target: L-type calcium channel, benzothiazepine site (Cav1.2 alpha-1C) (Homo sapiens, UniProt Q13936); test: Inhibition of Calcium Channel L-Type, Benzothiazepine at 10 µM in the Eurofins-Panlabs radioligand binding assay (Eurofins_assay_214510); parameters: ligand concentration 2 nM, non-specific ligand with concentration 10 µM Diltiazem, incubation time 3h, incubation temperature 4 °C; details: male, Wistar, rat, rat whole brain preparation, probe [3H] Diltiazem; compound concentration 10 uM; target entry is the homologue from another species
[14] = molecular target: SRSF protein kinase 2 (Homo sapiens) (UniProt P78362); test: SRPK2 DiscoveRx kinase panel; details: Compound concentration 1.0 uM
[15] = test system: HT1197; test: HT-1197 cell line Proliferation assay; type: functional, Homo sapiens; details: time 4 day
[16] = molecular target: 5-hydroxytryptamine receptor 1D (Homo sapiens, UniProt P28221); details: Compound concentration 10.0 uM
5-hydroxytryptamine receptor 1D, sequence (P28221 whole entry): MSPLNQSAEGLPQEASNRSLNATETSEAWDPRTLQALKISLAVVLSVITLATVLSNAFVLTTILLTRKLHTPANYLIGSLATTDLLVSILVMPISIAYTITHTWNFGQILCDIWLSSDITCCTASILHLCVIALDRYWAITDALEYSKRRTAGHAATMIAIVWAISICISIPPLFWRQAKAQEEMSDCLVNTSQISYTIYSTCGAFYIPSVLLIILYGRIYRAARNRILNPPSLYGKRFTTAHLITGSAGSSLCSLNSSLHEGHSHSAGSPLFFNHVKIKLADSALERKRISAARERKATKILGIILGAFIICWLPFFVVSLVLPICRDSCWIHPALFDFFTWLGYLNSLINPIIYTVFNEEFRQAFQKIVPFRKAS

[17] = molecular target: Platelet-derived growth factor receptor alpha (Homo sapiens) (UniProt P16234); test: PDGFRA DiscoveRx kinase panel; details: Compound concentration 1.0 uM
Platelet-derived growth factor receptor alpha (Homo sapiens), sequence (P16234 whole entry): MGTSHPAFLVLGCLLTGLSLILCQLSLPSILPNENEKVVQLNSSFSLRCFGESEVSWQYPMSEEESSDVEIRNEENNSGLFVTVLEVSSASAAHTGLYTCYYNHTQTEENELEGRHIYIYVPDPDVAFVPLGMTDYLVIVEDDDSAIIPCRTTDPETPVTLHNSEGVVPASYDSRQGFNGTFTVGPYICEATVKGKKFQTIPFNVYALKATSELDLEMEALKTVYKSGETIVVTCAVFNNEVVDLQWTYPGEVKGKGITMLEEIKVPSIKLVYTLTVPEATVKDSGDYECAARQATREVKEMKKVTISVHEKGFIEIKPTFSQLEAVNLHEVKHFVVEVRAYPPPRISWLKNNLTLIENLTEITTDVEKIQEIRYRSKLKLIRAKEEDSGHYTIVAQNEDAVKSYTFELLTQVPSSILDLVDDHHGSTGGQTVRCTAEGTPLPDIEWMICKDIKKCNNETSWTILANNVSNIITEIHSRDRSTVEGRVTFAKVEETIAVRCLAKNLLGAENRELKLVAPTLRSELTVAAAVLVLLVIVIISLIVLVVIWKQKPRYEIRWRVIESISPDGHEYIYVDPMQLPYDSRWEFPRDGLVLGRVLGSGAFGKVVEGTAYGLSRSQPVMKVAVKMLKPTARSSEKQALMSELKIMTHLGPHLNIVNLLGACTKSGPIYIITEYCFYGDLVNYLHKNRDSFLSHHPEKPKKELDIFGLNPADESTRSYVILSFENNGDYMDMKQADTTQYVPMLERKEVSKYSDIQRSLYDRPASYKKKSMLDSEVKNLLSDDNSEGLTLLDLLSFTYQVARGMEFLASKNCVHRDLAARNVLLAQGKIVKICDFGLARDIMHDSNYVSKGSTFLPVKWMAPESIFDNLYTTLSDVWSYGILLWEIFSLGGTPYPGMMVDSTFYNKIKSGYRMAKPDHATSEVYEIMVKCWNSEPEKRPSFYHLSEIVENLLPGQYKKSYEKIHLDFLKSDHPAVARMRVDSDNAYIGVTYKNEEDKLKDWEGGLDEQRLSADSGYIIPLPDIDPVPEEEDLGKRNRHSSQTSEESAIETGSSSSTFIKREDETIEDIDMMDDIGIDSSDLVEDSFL

[18] = molecular target: Proto-oncogene tyrosine-protein kinase ROS (Homo sapiens) (UniProt P08922); test: ROS1 DiscoveRx kinase panel; details: Compound concentration 1.0 uM
[19] = molecular target: Serine/threonine-protein kinase BRSK1 (Homo sapiens) (UniProt Q8TDC3); test: BRSK1 DiscoveRx kinase panel; details: Compound concentration 1.0 uM
[20] = molecular target: Receptor-interacting serine/threonine-protein kinase 1 (Homo sapiens) (UniProt Q13546); test: RIPK1 DiscoveRx kinase panel; details: Compound concentration 1.0 uM
[21] = molecular target: Ribosomal protein S6 kinase alpha-5 (Homo sapiens) (UniProt O75582); test: RPS6KA5(Kin.Dom.2-C-terminal) DiscoveRx kinase panel; details: Compound concentration 1.0 uM
[22] = molecular target: Calcium/calmodulin-dependent protein kinase type II subunit beta (Homo sapiens) (UniProt Q13554); test: CAMK2B DiscoveRx kinase panel; details: Compound concentration 1.0 uM
Calcium/calmodulin-dependent protein kinase type II subunit beta (Homo sapiens), sequence (Q13554 whole entry): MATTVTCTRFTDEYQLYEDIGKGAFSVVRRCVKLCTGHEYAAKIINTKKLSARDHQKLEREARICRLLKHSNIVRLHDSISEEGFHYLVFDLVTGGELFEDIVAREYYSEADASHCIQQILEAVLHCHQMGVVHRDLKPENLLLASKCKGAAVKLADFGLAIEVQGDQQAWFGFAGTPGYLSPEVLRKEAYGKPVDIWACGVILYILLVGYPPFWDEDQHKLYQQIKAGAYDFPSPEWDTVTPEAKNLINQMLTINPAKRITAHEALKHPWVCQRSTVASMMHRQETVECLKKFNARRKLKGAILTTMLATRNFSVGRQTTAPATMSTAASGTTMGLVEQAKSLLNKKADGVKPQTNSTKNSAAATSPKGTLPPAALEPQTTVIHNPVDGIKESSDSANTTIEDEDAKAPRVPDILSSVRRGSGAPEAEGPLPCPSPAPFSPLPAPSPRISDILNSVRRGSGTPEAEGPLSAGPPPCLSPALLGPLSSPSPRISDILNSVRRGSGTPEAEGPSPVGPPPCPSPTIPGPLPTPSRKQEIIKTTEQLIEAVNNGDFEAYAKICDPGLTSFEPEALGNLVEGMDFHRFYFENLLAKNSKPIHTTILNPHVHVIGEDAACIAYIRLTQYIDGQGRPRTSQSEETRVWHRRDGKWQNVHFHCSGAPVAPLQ

[23] = molecular target: Mitogen-activated protein kinase kinase kinase 19 (Homo sapiens) (UniProt Q56UN5); test: YSK4 DiscoveRx kinase panel; details: Compound concentration 1.0 uM
[24] = molecular target: Tyrosine-protein kinase Fyn (Homo sapiens) (UniProt P06241); test: FYN DiscoveRx kinase panel; details: Compound concentration 1.0 uM
[25] = molecular target: Glutamate NMDA receptor (Rattus norvegicus) (UniProt P35439+Q00959+Q00960+Q00961+Q62645+Q8VHN2+Q9R1M7); details: Compound concentration 10.0 uM
[26] = molecular target: Tyrosine-protein kinase JAK2 (Homo sapiens) (UniProt O60674); test: JAK2(JH1domain-catalytic) DiscoveRx kinase panel; details: Compound concentration 1.0 uM
[27] = molecular target: Bone morphogenetic protein receptor type-2 (Homo sapiens) (UniProt Q13873); test: BMPR2 DiscoveRx kinase panel; details: Compound concentration 1.0 uM
[28] = molecular target: Peripheral plasma membrane protein CASK (Homo sapiens) (UniProt O14936); test: CASK DiscoveRx kinase panel; details: Compound concentration 1.0 uM
[29] = molecular target: cAMP-dependent protein kinase catalytic subunit PRKX (Homo sapiens) (UniProt P51817); test: PRKX DiscoveRx kinase panel; details: Compound concentration 1.0 uM
[30] = molecular target: Activin receptor type-1 (Homo sapiens) (UniProt Q04771); test: ACVR1 DiscoveRx kinase panel; details: Compound concentration 1.0 uM
[31] = molecular target: Casein kinase I isoform alpha (Homo sapiens) (UniProt P48729); test: CSNK1A1 DiscoveRx kinase panel; details: Compound concentration 1.0 uM
Casein kinase I isoform alpha (Homo sapiens), sequence (P48729 2-337 limits assumed): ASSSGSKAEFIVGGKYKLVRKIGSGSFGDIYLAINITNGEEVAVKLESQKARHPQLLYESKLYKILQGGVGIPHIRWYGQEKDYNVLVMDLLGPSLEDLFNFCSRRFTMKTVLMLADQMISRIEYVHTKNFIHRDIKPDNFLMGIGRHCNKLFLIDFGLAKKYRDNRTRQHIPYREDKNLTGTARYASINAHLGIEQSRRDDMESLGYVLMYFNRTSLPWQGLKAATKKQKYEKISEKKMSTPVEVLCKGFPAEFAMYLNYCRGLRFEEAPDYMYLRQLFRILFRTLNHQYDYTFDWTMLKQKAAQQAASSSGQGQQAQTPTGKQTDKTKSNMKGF

[32] = molecular target: Cyclin-dependent kinase 4 (Homo sapiens) (UniProt P11802); test: CDK4 DiscoveRx kinase panel; details: Compound concentration 1.0 uM
[33] = molecular target: 5'-AMP-activated protein kinase catalytic subunit alpha-1 (Homo sapiens) (UniProt Q13131); test: AMPK-alpha1 DiscoveRx kinase panel; details: Compound concentration 1.0 uM
[34] = molecular target: Ephrin type-A receptor 7 (Homo sapiens) (UniProt Q15375); test: EPHA7 DiscoveRx kinase panel; details: Compound concentration 1.0 uM
Ephrin type-A receptor 7 (Homo sapiens), sequence (Q15375 28-998 limits assumed): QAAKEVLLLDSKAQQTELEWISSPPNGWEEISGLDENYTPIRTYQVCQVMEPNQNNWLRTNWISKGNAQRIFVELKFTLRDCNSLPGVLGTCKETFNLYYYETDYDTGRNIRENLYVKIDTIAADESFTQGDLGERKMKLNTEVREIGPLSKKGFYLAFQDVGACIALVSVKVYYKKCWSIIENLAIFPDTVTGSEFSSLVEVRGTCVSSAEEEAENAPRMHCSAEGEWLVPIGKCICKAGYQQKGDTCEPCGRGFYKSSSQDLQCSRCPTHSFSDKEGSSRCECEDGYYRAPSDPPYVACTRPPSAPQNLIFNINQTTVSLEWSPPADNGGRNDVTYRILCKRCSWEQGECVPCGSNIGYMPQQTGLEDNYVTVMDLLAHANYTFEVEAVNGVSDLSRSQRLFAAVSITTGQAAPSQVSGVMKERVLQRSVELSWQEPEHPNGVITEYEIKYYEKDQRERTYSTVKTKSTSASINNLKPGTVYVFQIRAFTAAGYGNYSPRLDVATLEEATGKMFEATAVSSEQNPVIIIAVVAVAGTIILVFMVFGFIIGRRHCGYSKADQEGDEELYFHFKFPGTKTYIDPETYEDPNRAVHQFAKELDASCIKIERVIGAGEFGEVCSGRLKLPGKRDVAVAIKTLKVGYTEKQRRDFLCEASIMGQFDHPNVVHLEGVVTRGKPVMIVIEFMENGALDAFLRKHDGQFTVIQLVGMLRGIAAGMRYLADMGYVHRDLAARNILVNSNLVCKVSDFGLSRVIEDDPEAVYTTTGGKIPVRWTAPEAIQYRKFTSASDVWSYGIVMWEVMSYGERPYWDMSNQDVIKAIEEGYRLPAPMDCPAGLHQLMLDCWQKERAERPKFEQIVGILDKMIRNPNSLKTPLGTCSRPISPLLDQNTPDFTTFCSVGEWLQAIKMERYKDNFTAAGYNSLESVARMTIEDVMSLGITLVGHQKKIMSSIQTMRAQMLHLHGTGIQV

[35] = molecular target: Phosphorylase b kinase gamma catalytic chain, skeletal muscle/heart isoform (Homo sapiens) (UniProt Q16816); test: PHKG1 DiscoveRx kinase panel; details: Compound concentration 1.0 uM
[36] = molecular target: Inhibitor of nuclear factor kappa-B kinase subunit beta (Homo sapiens) (UniProt O14920); test: IKK-beta DiscoveRx kinase panel; details: Compound concentration 1.0 uM
[37] = molecular target: Prostaglandin G/H synthase 2 (Homo sapiens) (UniProt P35354); test: Cyclooxygenase COX-2 Eurofins-Panlabs enzyme assay; parameters: substrate with concentration; details: Compound concentration 10.0 uM
[38] = molecular target: Serine/threonine-protein kinase 10 (Homo sapiens, UniProt O94804); test: LOK DiscoveRx kinase panel
[39] = molecular target: Cyclin-dependent kinase 18 (Homo sapiens) (UniProt Q07002); test: PCTK3 DiscoveRx kinase panel; details: Compound concentration 1.0 uM
[40] = molecular target: SRSF protein kinase 1 (Homo sapiens) (UniProt Q96SB4); test: SRPK1 DiscoveRx kinase panel; details: Compound concentration 1.0 uM

Structure (SMILES): COc1cnccc1Nc1nc(-c2nn(Cc3c(F)cc(OCCO)cc3F)c3ccccc23)ncc1OC
- residual activity [1]: 99%
- inhibition [2]: 7.49%
- residual activity [3]: 100%
- residual activity [4]: 87%
- inhibition [5]: 11%
- inhibition [6]: 10%
- residual activity [7]: 100%
- residual activity [8]: 100%
- inhibition [9]: -6%
- residual activity [10]: 79%
- residual activity [11]: 91%
- residual activity [12]: 100%
- inhibition at 3 h, 10 µM [13]: -10% (not active)
- residual activity [14]: 77%
- Cell Proliferation IC50 [15]: 4.9 µM
- inhibition [16]: 9.3%
- residual activity [17]: 100%
- residual activity [18]: 100%
- residual activity [19]: 93%
- residual activity [20]: 97%
- residual activity [21]: 100%
- residual activity [22]: 100%
- residual activity [23]: 97%
- residual activity [24]: 89%
- inhibition [25]: 4%
- residual activity [26]: 100%
- residual activity [27]: 100%
- residual activity [28]: 78%
- residual activity [29]: 100%
- residual activity [30]: 98%
- residual activity [31]: 99%
- residual activity [32]: 100%
- residual activity [33]: 100%
- residual activity [34]: 98%
- residual activity [35]: 100%
- residual activity [36]: 100%
- inhibition [37]: -9%
- residual activity [38]: 57%
- residual activity ([38]; Compound concentration 1.0 uM): 0.6%
- residual activity [39]: 76%
- residual activity [40]: 90%

Reference: ChEMBL document CHEMBL5058649, “Data for DCP probe BAY 1816032” (2022)
